Experimental data: the supplement of paper PMC10307832

Tests used:
Assay in all cases: relative viability (nuclei count vs DMSO), 5 days (fraction); higher = more cells survive
NCI-H358 = test system: NCI-H358
Method in brief: (§1)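 Each reported value is a median over duplicate plates. It expresses relative viability: treated-well nuclei count divided by vehicle-well nuclei count. Lung cancer cell lines in 1536-well plates were dosed by pin tool a day after seeding, alone with one drug or with a fixed anchor-drug dose plus five library-drug doses (not always all listed) in √10 steps, and nuclei were counted after 5 days.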

HARA = test system: HARA
Method in brief: as §1

UMC-11 = test system: UMC-11
Method in brief: as §1

NCI-H838 = test system: NCI-H838
Method in brief: as §1

COR-L23 = test system: COR-L23
Method in brief: as §1

NCI-H647 = test system: NCI-H647
Method in brief: as §1

SK-MES-1 = test system: SK-MES-1
Method in brief: as §1

NCI-H1993 = test system: NCI-H1993
Method in brief: as §1

COR-L 105 = test system: COR-L 105
Method in brief: as §1

NCI-H2009 = test system: NCI-H2009
Method in brief: as §1

NCI-H2347 = test system: NCI-H2347
Method in brief: as §1

EKVX = test system: EKVX
Method in brief: as §1

NCI-H2228 = test system: NCI-H2228
Method in brief: as §1

NCI-H322M = test system: NCI-H322M
Method in brief: as §1

PC-14 = test system: PC-14
Method in brief: as §1

HOP-62 = test system: HOP-62
Method in brief: as §1

NCI-H1355 = test system: NCI-H1355
Method in brief: as §1

NCI-H2170 = test system: NCI-H2170
Method in brief: as §1

NCI-H1755 = test system: NCI-H1755
Method in brief: as §1

NCI-H1734 = test system: NCI-H1734
Method in brief: as §1

## CC(C)Oc1cc(Nc2nc(N[C@@H](C)c3ccc(F)cn3)ncc2Cl)n[nH]1 [AZ23] + C[C@@H](Oc1cc(-c2cnn(C3CCNCC3)c2)cnc1N)c1c(Cl)ccc(F)c1Cl [Crizotinib] (partner 1 µM)
NCI-H358; first compound 0.01 µM
  relative viability: 0.522
NCI-H358; first compound 0.03162 µM
  relative viability: 0.781
NCI-H358; first compound 0.3162 µM
  relative viability: 0.654
HARA; first compound 0.01 µM
  relative viability: 1.2
HARA; first compound 0.03162 µM
  relative viability: 0.904
HARA; first compound 0.3162 µM
  relative viability: 0.983
UMC-11; first compound 0.01 µM
  relative viability: 0.552
UMC-11; first compound 0.03162 µM
  relative viability: 0.73
UMC-11; first compound 0.3162 µM
  relative viability: 0.555
NCI-H838; first compound 0.01 µM
  relative viability: 0.702
NCI-H838; first compound 0.03162 µM
  relative viability: 0.889
NCI-H838; first compound 0.3162 µM
  relative viability: 0.803
COR-L23; first compound 0.01 µM
  relative viability: 0.763
COR-L23; first compound 0.03162 µM
  relative viability: 0.828
COR-L23; first compound 0.3162 µM
  relative viability: 0.766
NCI-H647; first compound 0.01 µM
  relative viability: 1.71
NCI-H647; first compound 0.03162 µM
  relative viability: 1.37
NCI-H647; first compound 0.3162 µM
  relative viability: 1.3
SK-MES-1; first compound 0.01 µM
  relative viability: 1.02
SK-MES-1; first compound 0.03162 µM
  relative viability: 1.14
SK-MES-1; first compound 0.3162 µM
  relative viability: 0.938
NCI-H1993; first compound 0.01 µM
  relative viability: 0.857
NCI-H1993; first compound 0.3162 µM
  relative viability: 0.804
COR-L 105; first compound 0.01 µM
  relative viability: 0.618
COR-L 105; first compound 0.03162 µM
  relative viability: 0.825
COR-L 105; first compound 0.3162 µM
  relative viability: 0.786
NCI-H2009; first compound 0.01 µM
  relative viability: 1.05
NCI-H2009; first compound 0.03162 µM
  relative viability: 1.2
NCI-H2009; first compound 0.3162 µM
  relative viability: 1.06
NCI-H2347; first compound 0.01 µM
  relative viability: 0.736
NCI-H2347; first compound 0.03162 µM
  relative viability: 0.861
NCI-H2347; first compound 0.3162 µM
  relative viability: 0.654
EKVX; first compound 0.01 µM
  relative viability: 1.05
EKVX; first compound 0.03162 µM
  relative viability: 1.03
EKVX; first compound 0.3162 µM
  relative viability: 1.03
NCI-H2228; first compound 0.01 µM
  relative viability: 0.64
NCI-H2228; first compound 0.03162 µM
  relative viability: 0.449
NCI-H2228; first compound 0.3162 µM
  relative viability: 0.33
NCI-H322M; first compound 0.01 µM
  relative viability: 1.08
NCI-H322M; first compound 0.03162 µM
  relative viability: 1.14
NCI-H322M; first compound 0.3162 µM
  relative viability: 0.939
PC-14; first compound 0.01 µM
  relative viability: 0.896
PC-14; first compound 0.03162 µM
  relative viability: 1.21
PC-14; first compound 0.3162 µM
  relative viability: 0.89
HOP-62; first compound 0.01 µM
  relative viability: 0.992
HOP-62; first compound 0.03162 µM
  relative viability: 0.912
HOP-62; first compound 0.3162 µM
  relative viability: 1.08
NCI-H1355; first compound 0.01 µM
  relative viability: 1.19
NCI-H1355; first compound 0.03162 µM
  relative viability: 1.11
NCI-H1355; first compound 0.3162 µM
  relative viability: 1.09
NCI-H2170; first compound 0.01 µM
  relative viability: 1.67
NCI-H2170; first compound 0.03162 µM
  relative viability: 1.45
NCI-H2170; first compound 0.3162 µM
  relative viability: 1.42
NCI-H1755; first compound 0.01 µM
  relative viability: 1.1
NCI-H1755; first compound 0.03162 µM
  relative viability: 1.01
NCI-H1755; first compound 0.3162 µM
  relative viability: 0.964
NCI-H1734; first compound 0.01 µM
  relative viability: 0.713
NCI-H1734; first compound 0.03162 µM
  relative viability: 0.782
NCI-H1734; first compound 0.3162 µM
  relative viability: 0.76

## COc1cc(N2CCC(C(N)=O)CC2)ccc1Nc1nc(N)c(Cl)c(Nc2ccccc2S(=O)(=O)C(C)C)n1 [HG-5-88-01] + CC(C)C[C@H](NC(=O)[C@H](Cc1ccccc1)NC(=O)c1cnccn1)B(O)O [Bortezomib] (partner 0.002 µM)
HARA; first compound 0.04 µM
  relative viability: 1.16
HARA; first compound 0.1265 µM
  relative viability: 1.03
HARA; first compound 0.4 µM
  relative viability: 1.07
HARA; first compound 1.265 µM
  relative viability: 1.02
HARA; first compound 4 µM
  relative viability: 1.02
UMC-11; first compound 0.04 µM
  relative viability: 0.769
UMC-11; first compound 0.1265 µM
  relative viability: 0.82
UMC-11; first compound 0.4 µM
  relative viability: 0.642
UMC-11; first compound 1.265 µM
  relative viability: 0.837
UMC-11; first compound 4 µM
  relative viability: 0.494
NCI-H838; first compound 0.04 µM
  relative viability: 0.818
NCI-H838; first compound 0.1265 µM
  relative viability: 0.645
NCI-H838; first compound 0.4 µM
  relative viability: 0.759
NCI-H838; first compound 1.265 µM
  relative viability: 0.702
NCI-H838; first compound 4 µM
  relative viability: 0.333
COR-L23; first compound 0.04 µM
  relative viability: 1.06
COR-L23; first compound 0.1265 µM
  relative viability: 1.08
COR-L23; first compound 0.4 µM
  relative viability: 0.854
COR-L23; first compound 1.265 µM
  relative viability: 0.91
COR-L23; first compound 4 µM
  relative viability: 0.896
NCI-H647; first compound 0.04 µM
  relative viability: 1.02
NCI-H647; first compound 0.1265 µM
  relative viability: 0.826
NCI-H647; first compound 1.265 µM
  relative viability: 1.07
NCI-H647; first compound 4 µM
  relative viability: 0.967
NCI-H1993; first compound 0.04 µM
  relative viability: 1.08
NCI-H1993; first compound 0.1265 µM
  relative viability: 1.08
NCI-H1993; first compound 0.4 µM
  relative viability: 0.971
NCI-H1993; first compound 1.265 µM
  relative viability: 0.819
NCI-H1993; first compound 4 µM
  relative viability: 1.02
COR-L 105; first compound 0.04 µM
  relative viability: 0.875
COR-L 105; first compound 0.1265 µM
  relative viability: 0.77
COR-L 105; first compound 0.4 µM
  relative viability: 0.619
COR-L 105; first compound 1.265 µM
  relative viability: 0.375
COR-L 105; first compound 4 µM
  relative viability: 0.531
NCI-H2009; first compound 0.04 µM
  relative viability: 0.99
NCI-H2009; first compound 0.1265 µM
  relative viability: 1.19
NCI-H2009; first compound 0.4 µM
  relative viability: 0.845
NCI-H2009; first compound 1.265 µM
  relative viability: 0.986
NCI-H2009; first compound 4 µM
  relative viability: 0.765
NCI-H2347; first compound 0.04 µM
  relative viability: 0.954
NCI-H2347; first compound 0.1265 µM
  relative viability: 0.873
NCI-H2347; first compound 0.4 µM
  relative viability: 1.01
NCI-H2347; first compound 1.265 µM
  relative viability: 1.16
NCI-H2347; first compound 4 µM
  relative viability: 0.897
EKVX; first compound 0.04 µM
  relative viability: 1.09
EKVX; first compound 0.1265 µM
  relative viability: 1.02
EKVX; first compound 0.4 µM
  relative viability: 1.02
EKVX; first compound 4 µM
  relative viability: 0.854
NCI-H2228; first compound 0.04 µM
  relative viability: 0.363
NCI-H2228; first compound 0.1265 µM
  relative viability: 0.478
NCI-H2228; first compound 0.4 µM
  relative viability: 0.292
NCI-H2228; first compound 1.265 µM
  relative viability: 0.255
NCI-H2228; first compound 4 µM
  relative viability: 0.345
NCI-H322M; first compound 0.04 µM
  relative viability: 1.22
NCI-H322M; first compound 0.1265 µM
  relative viability: 1.04
NCI-H322M; first compound 0.4 µM
  relative viability: 1.38
NCI-H322M; first compound 1.265 µM
  relative viability: 1.23
NCI-H322M; first compound 4 µM
  relative viability: 1.08
PC-14; first compound 0.04 µM
  relative viability: 0.837
PC-14; first compound 0.1265 µM
  relative viability: 0.969
PC-14; first compound 0.4 µM
  relative viability: 0.864
PC-14; first compound 1.265 µM
  relative viability: 0.883
PC-14; first compound 4 µM
  relative viability: 0.316
HOP-62; first compound 0.04 µM
  relative viability: 0.684
HOP-62; first compound 0.1265 µM
  relative viability: 0.732
HOP-62; first compound 0.4 µM
  relative viability: 0.77
HOP-62; first compound 1.265 µM
  relative viability: 0.76
HOP-62; first compound 4 µM
  relative viability: 0.732
NCI-H1355; first compound 0.04 µM
  relative viability: 1.37
NCI-H1355; first compound 0.1265 µM
  relative viability: 1.37
NCI-H1355; first compound 0.4 µM
  relative viability: 1.21
NCI-H1355; first compound 1.265 µM
  relative viability: 1.14
NCI-H1355; first compound 4 µM
  relative viability: 0.96
NCI-H1755; first compound 0.1265 µM
  relative viability: 0.911
NCI-H1755; first compound 0.4 µM
  relative viability: 0.885
NCI-H1755; first compound 1.265 µM
  relative viability: 0.92
NCI-H1755; first compound 4 µM
  relative viability: 0.975
NCI-H1734; first compound 0.04 µM
  relative viability: 0.899
NCI-H1734; first compound 0.1265 µM
  relative viability: 0.975
NCI-H1734; first compound 0.4 µM
  relative viability: 0.958
NCI-H1734; first compound 1.265 µM
  relative viability: 0.868
NCI-H1734; first compound 4 µM
  relative viability: 0.83
